Test results published in US11034692B1 (Genentech, Inc., priority 2017, dated 2021).
Where two headings read alike, the source gives them in different places.

Biological target: HPK1
Assay: HPK1 Lantha Binding Assay ("Lanth")
Procedure: HPK1 Lantha Binding Assay (“Lanth”)
The compounds to be tested were diluted by preparing 12.5 uL/well of 5 mM compound (100×) in columns 2 and 13 and 10 ul/well of DMSO in columns 3-12, 14-23, and wells A1-H1 and I24-P24 of the compound plate using a Bravo liquid handling platform. For the reference compound, the top concentration was 1 mM. To the plate was added 10 ul 2 mM staurosporine in wells J1-P1 and A24-H24. A 11 point 5-fold compound serial dilution was performed using the Bravo liquid handling platform. From the plate were transferred 2.5 ul of the solutions from column 2 and column 13 to the 10 ul of DMSO in columns 3 and 14 & so on. The compound plate was centrifuged at 2500 rpm for 1 min. From the compound plate was transferred 80 nl of the compounds into an assay plate using the Echo liquid handler system. One compound plate makes two assay plates. Each assay plate is sealed and stored in an N2 cabinet.
The following assay concentrations and times were used: 2 nM HPK1, 2 nM Eu-Anti-GST Ab, and 15 nM Tracer222, with 60 min incubation time.
III. HPK Lantha Binding Assay:
For the binding assay, 4 ul 2×HPK1 and Eu-anti-GST antibody were added to each well of the assay plate using a Multidrop reagent dispenser. The solutions were incubated in a 23 C incubator for 1 h. To each well of the assay plate was added 4 ul 2× Tracer-222 using a Multidrop reagent dispenser. The solutions were again incubated in a 23 C incubator for 1 h. The results of the assay were read using an Envision plate reader with the following parameters: TR_FRET, 340ex/615 and 665em; 100 usec Delay; and 200 usec integration.
Compound Ki was analyzed using Morrison ki fit model in XL-fit • a. fit=(1−((((E+x)+(Ki*(1+(S/Kd))))−(((((E+x)+(Ki*(1+(S/Kd))))[…])−((4*E)*x))^0.5))/(2*E))) • res=(y-fit) • b. Parameters: • E=enzyme concentration • S=Tracer222 concentration, Kd=Tracer222 Kd • All measurements reported using the same units (uM)
Exemplary compounds of Formula I or Ia were tested in the binding assays. The Ki data in Table B1-1 are based on the “Lanth” assay.

[1] = Table B1-1, read-out: HPK1 Ki (μM) (Lanth)
[2] = Table B1-2, read-out: HPK1 Ki, L = Lanth

| Ki [1] [nM] | Ki [2] [nM] | SMILES |
| --- | --- | --- |
| 13.4 | – | CCc1ccncc1-c1cc2cc(NC(=O)c3cnn(C)c3)ncc2c(N)n1 [Compound 73, 1-Methyl-1H-pyrazole-4-carboxylic acid [8-amino-6-(4-ethylpyridin-3-yl)-[2,7]naphthyridin-3-yl]amide] |
| 49.3 | – | Cc1ncncc1-c1cc2cc(NC(=O)[C@@H]3C[C@@H]3F)ncc2c(N)n1 [Compound 12, (1S,2S)—N-(8-amino-6-(4-methylpyrimidin-5-yl)-2,7-naphthyridin-3-yl)-2-fluorocyclopropanecarboxamide] |
| 3.25 | – | Cn1cc([C@H]2C[C@@H]2C(=O)Nc2cc3cc(-c4c(F)cccc4F)nc(N)c3cn2)cn1 (stereo in doubt) [Compound 306, (1S,2S)—N-[8-amino-6-(2,6-difluorophenyl)-2,7-naphthyridin-3-yl]-2-(1-methyl-1H-pyrazol-4-yl)cyclopropane-1-carboxamide] |
| 0.287 | – | NCCOCCn1cc([C@H]2C[C@@H]2C(=O)Nc2cc3cc(-c4c(Cl)cccc4Cl)nc(N)c3cn2)cn1 [Compound 295, (1S,2S)—N-[8-amino-6-(2,6-dichlorophenyl)-2,7-naphthyridin-3-yl]-2-[1-[2-(2-aminoethoxy)ethyl]-1H-pyrazol-4-yl]cyclopropane-1-carboxamide] |
| 0.021 | – | CNC(=O)c1cc(Nc2cc3cc(-c4cnccc4C)nc(N)c3cn2)nn1C [Compound 263, 3-[[8-Amino-6-(4-methylpyridin-3-yl)-2,7-naphthyridin-3-yl]amino]-N,1-dimethyl-1H-pyrazole-5-carboxamide] |
| – | 1.8 | Cc1cc(C2=N[C@@H](C(C)C)CO2)ncc1-c1cc2cc(NC(=O)[C@H]3C[C@@H]3c3cnn(C)c3)ncc2c(N)n1 (stereo in doubt) [Compound 384, trans-N-(8-amino-6-(6-((S)-4-isopropyl-4,5-dihydrooxazol-2-yl)-4-methylpyridin-3-yl)-2,7-naphthyridin-3-yl)-2-(1-methyl-1H-pyrazol-4-yl)cyclopropane-1-carboxamide] |
| 3.02 | – | Cn1cc([C@H]2C[C@@H]2C(=O)Nc2cc3cc(-c4ccccc4Cl)nc(N)c3cn2)cn1 (stereo in doubt) [Compound 304, (1S,2S)—N-[8-amino-6-(2-chlorophenyl)-2,7-naphthyridin-3-yl]-2-(1-methyl-1H-pyrazol-4-yl)cyclopropane-1-carboxamide] |
| 3.04 | – | Cc1cc(-c2ncco2)ncc1-c1cc2cc(NC(=O)[C@H]3C[C@@H]3c3cnn(C)c3)ncc2c(N)n1 [Compound 308, (1S,2S)—N-[8-amino-6-[4-methyl-6-(1,3-oxazol-2-yl)pyridin-3-yl]-2,7-naphthyridin-3-yl]-2-(1-methyl-1H-pyrazol-4-yl)cyclopropane-1-carboxamide] |
| 0.135 | – | Cc1ccncc1-c1cc2cc(NC(=O)[C@H]3C[C@@H]3CC#N)ncc2c(N)n1 [Compound 193, (1S,2R)—N-(8-amino-6-(4-methylpyridin-3-yl)-2,7-naphthyridin-3-yl)-2-(cyanomethyl)cyclopropane-1-carboxamide] |
| – | 2.7 | Cc1cccc(F)c1-c1cc2cc(NC(=O)[C@H]3[C@H](C)[C@@H]3c3cnn(C)c3)ncc2c(N)n1 [Compound 357, (1S,2R,3S)—N-[8-amino-6-(2-fluoro-6-methylphenyl)-2,7-naphthyridin-3-yl]-2-methyl-3-(1-methyl-1H-pyrazol-4-yl)cyclopropane-1-carboxamide] |
| 2.3 | – | Cc1ccncc1-c1nc(N)c2cnc(NC(=O)[C@@H]3C[C@H]3CC#N)cc2c1Cl [Compound 269, (1R,2S)—N-[8-amino-5-chloro-6-(4-methylpyridin-3-yl)-2,7-naphthyridin-3-yl]-2-(cyanomethyl)cyclopropane-1-carboxamide] |
| 0.433 | – | Cc1ccncc1-c1cc2cc(Nc3cnn([C@@H]4CCN(C)C4=O)c3)ncc2c(N)n1 [Compound 249, (3R)-3-(4-[[8-amino-6-(4-methylpyridin-3-yl)-2,7-naphthyridin-3-yl]amino]-1H-pyrazol-1-yl)-1-methylpyrrolidin-2-one] |
| 0.297 | – | Cc1ccncc1-c1cc2cc(Nc3cnn([C@@H](C)C#N)c3)ncc2c(N)n1 [Compound 274, (S)-2-(4-(8-amino-6-(4-methylpyridin-3-yl)-2,7-naphthyridin-3-ylamino)-1H-pyrazol-1-yl)propanenitrile] |
| 5.9 | – | CC(=O)N1C[C@@H]2[C@H](C1)[C@H]2C(=O)Nc1cc2cc(-c3cnccc3C)nc(N)c2cn1 [Compound 143, exo-3-acetyl-N-[8-amino-6-(4-methyl-3-pyridyl)-2,7-naphthyridin-3-yl]-3-azabicyclo[3.1.0]hexane-6-carboxamide] |
| 1.08 | – | Cn1cc(-c2cc3cc(NC(=O)C4CC4)ncc3c(N)n2)cn1 [Compound 27, N-[8-amino-6-(1-methylpyrazol-4-yl)-2,7-naphthyridin-3-yl]cyclopropanecarboxamide] |
| 0.668 | – | Cc1ccncc1-c1cc2cc(NC(=O)[C@@H]3C[C@H]3c3cnn(CCOCCN)c3)ncc2c(N)n1 [Compound 293, (1R,2R)—N-[8-amino-6-(4-methylpyridin-3-yl)-2,7-naphthyridin-3-yl]-2-[1-[2-(2-aminoethoxy)ethyl]-1H-pyrazol-4-yl]cyclopropane-1-carboxamide] |
| 1.01 | – | Cc1ccncc1-c1cc2cc(Nc3cnn(CC(F)F)c3)ncc2c(N)n1 [Compound 257, 6-N-[1-(2,2-difluoroethyl)-1H-pyrazol-4-yl]-3-(4-methylpyridin-3-yl)-2,7-naphthyridine-1,6-diamine] |
| 5.47 | – | CCc1ccncc1-c1cc2cc(NC(=O)N[C@@H]3CCN(C)C3=O)ncc2c(N)n1 [Compound 65, (R)-1-(8-amino-6-(4-ethylpyridin-3-yl)-2,7-naphthyridin-3-yl)-3-(1-methyl-2-oxopyrrolidin-3-yl)urea] |
| 0.078 | – | Cc1ccncc1-c1nc(N)c2cnc(NC(=O)[C@@H]3C[C@H]3c3cnn(C)c3)cc2c1Cl [Compound 234, (1R,2R)—N-(8-amino-5-chloro-6-(4-methylpyridin-3-yl)-2,7-naphthyridin-3-yl)-2-(1-methyl-1H-pyrazol-4-yl)cyclopropanecarboxamide] |
| 57.4 | – | Cc1ccncc1-c1cc2cc(NC(=O)[C@H]3CC[C@H]3C)ncc2c(N)n1 [Compound 321, (1S,2R)—N-(8-amino-6-(4-methylpyridin-3-yl)-2,7-naphthyridin-3-yl)-2-methylcyclobutanecarboxamide] |
| 47.5 | – | Cn1nccc1-c1cc2cc(NC(=O)[C@@H]3C[C@@H]3F)ncc2c(N)n1 [Compound 18, (1S,2S)—N-(8-amino-6-(1-methyl-1H-pyrazol-5-yl)-2,7-naphthyridin-3-yl)-2-fluorocyclopropanecarboxamide] |
| 0.139 | – | CCc1c(-c2cnccc2C)nc(N)c2cnc(NC(=O)[C@@H]3C[C@H]3CC#N)cc12 [Compound 272, (1R,2S)—N-[8-amino-5-ethyl-6-(4-methylpyridin-3-yl)-2,7-naphthyridin-3-yl]-2-(cyanomethyl)cyclopropane-1-carboxamide] |
| 7.39 | – | COc1ccc(C)c(-c2cc3cc(NC(=O)C4C[C@H]4c4cnn(C)c4)ncc3c(N)n2)c1 (stereo partly drawn) [Compound 289, (1R,2R)—N-[8-amino-6-(5-methoxy-2-methylphenyl)-2,7-naphthyridin-3-yl]-2-(1-methyl-H-pyrazol-4-yl)cyclopropane-1-carboxamide] |
| 2030 | – | Cc1ccncc1-c1cc2cc(NC(=O)C(C)(C)O)ncc2c(N)n1 [Compound 39, N-(8-amino-6-(4-methylpyridin-3-yl)-2,7-naphthyridin-3-yl)-2-hydroxy-2-methylpropanamide] |
| 0.039 | – | Cn1cc([C@@H]2C[C@H]2C(=O)Nc2cc3cc(-c4cnccc4CCO)nc(N)c3cn2)cn1 [Compound 214, (1R,2R)—N-(8-amino-6-(4-(2-hydroxyethyl)pyridin-3-yl)-2,7-naphthyridin-3-yl)-2-(1-methyl-1H-pyrazol-4-yl)cyclopropanecarboxamide] |
| 0.0675 | – | N#CC[C@H]1C[C@@H]1C(=O)Nc1cc2cc(-c3c(Cl)cccc3Cl)nc(N)c2cn1 [Compound 310, (1S,2R)—N-(8-amino-6-(2,6-dichlorophenyl)-2,7-naphthyridin-3-yl)-2-(cyanomethyl)cyclopropanecarboxamide] |
| 2.19 | – | Cc1ccncc1-c1cc2cc(NC(=O)[C@@H]3C[C@H]3C(C)(C)O)ncc2c(N)n1 [Compound 241, (1R,2R)—N-[8-amino-6-(4-methylpyridin-3-yl)-2,7-naphthyridin-3-yl]-2-(2-hydroxypropan-2-yl)cyclopropane-1-carboxamide] |
| 3.53 | – | Cc1ccncc1-c1cc2cc(NC(=O)C3CC34CNC4)ncc2c(N)n1 (stereo not shown) [Compound 113, N-[8-amino-6-(4-methyl-3-pyridyl)-2,7-naphthyridin-3-yl]-5-azaspiro[2.3]hexane-2-carboxamide] |
